Laboratory results as given in patent publication US20080145858A1, “DETECTION AND IDENTIFICATION OF TOXICANTS BY MEASUREMENT OF GENE […]” (priority 2003, published 2008).

System: Xenopus laevis cleavage stage embryos (stage 8)
Assay: Xenopus cDNA microarray, differential gene expression after PMA treatment during cleavage stage (Group I)
Format: in vivo
Conditions: PMA 100 ng/ml, stage 8
Text: Specifically, the method and screen of the present invention function as follows. EST clones produced from Xenopus laevis unfertilized eggs were used in the present study with ˜1,200 EST clones from a 18,500 EST clone set selected for production of a Xenopus cDNA microarray. The Xenopus microarray was used to measure the effect of chemical treatment on Xenopus embryo gene regulation. The chemical treatment was a phorbol ester, PMA. Xenopus eggs were obtained from females induced for ovulation and fertilized in vitro. Control Xenopus laevis embryos were allowed to develop to stage 8 blastula or stage 15 neurula. Treated embryos were exposed to PMA during cleavage stage or during neurulation with end points of blastula (stage 8) or neurula (stage 15). Specifically, PMA 100 ng/ml was added to the incubation media during cleavage stages for evaluation in stage 8 embryo or PMA was added during neural induction for evaluation in stage 15 embryos. RNA extracted from the embryos was used to generate fluorescent cDNA probes for Xenopus microarray analyses to measure differential gene expression with and without the phorbol ester treatment. Analysis was performed using paired RNA samples to compare PMA-treated and untreated embryos: Group I measured the effects of PMA-treatment during the cleavage stage in stage 8 embryos and Group II measured the effects of PMA-treatment during neurulation in stage 15 embryos. Group III measured the change in gene expression between stage 8 and stage 15 embryos.
cDNA fragments were obtained by PCR replication of Xenopus laevis unfertilized egg cDNA inserts, purified, quantitated and loaded onto glass chips by robotics. In addition to the selected ˜1,200 genes, 64 lambda Q gene, an internal control cDNA (Genomic Solutions, Inc., Ann Arbor, Mich.) was loaded on the chip. The insert DNA from ˜1,200 clones were PCR amplified using forward and reverse primers (GF.200 primers, Research Genetics, Huntsville, Ala.). A second PCR was carried out using 1 μl of the primary PCR (20 μl) for template. Excess dNTPs, polymerase and other PCR artifacts were removed from the secondary PCR reactions using Millipore Multiscreen plates (Millipore Corporation, Bedford, Mass.) using the standard protocol. The purity of the PCR products was assessed by electrophoresis and documented using an Alphalmager 1000 Digital Imaging System (Alpha Innotech Corporation, San Leandro, Calif.). The DNA obtained by PCR was quantitated using PicoGreen (Molecular Probes, Eugene, Oreg.). The DNA was denatured and arrayed onto amino-silane coated microscope slides (CMT-GAPS coated slides, Corning, Corning, N.Y.) using a Flexys robotic workstation (Genomic Solutions Inc.). The ˜1,200 PCR products were arrayed in duplicate on each slide and cross-linked. Each gene chip contained duplicate cDNA samples.
Total RNA was prepared from embryos treated in three separate dishes per treatment group that were pooled. Total RNA was isolated from the frog embryos (1,200 embryos for each probe production) using TRIzol extraction (Gibco BRL, Grand Island, N.Y.) and Qiagen RNeasy kits (Qiagen, Valencia, Calif.). The ethanol precipitated RNA was resuspended in RNase-free water, quantitated with RiboGreen (Molecular Probes, Eugene, Oreg.). Total RNA was further purified using oligoTex mRNA maxi kit (Qiagen Co.) with the bound mRNA eluted with minimum volume of elution buffer and precipitated with ethanol. The recovery rate of mRNA by the ethanol precipitation method was ˜70%. Cy3- or Cy5-tagged probes were produced from an mRNA mixture (20 μl) of Xenopus mRNA (5 μg) and lambda Q gene mRNA (3.5 ng) reverse-transcribed with oligo(dT)18-22 primer and dNTPs and the reverse-transcribed cDNA was cross-linked with Cy3 or Cy5 as described in Clontech Atlas™ Glass Fluorescent Labeling kit manual (www.clontech.com). After hydrolysis of the RNA and purification of the probe (Centricon 50, Millipore, Bedford, Mass.), the cDNA in TE buffer was quantitated by absorbance at 260 nm. […]

## CCCCCCCCCCCCCC(=O)O[C@@H]1[C@@H](C)[C@@]2(O)[C@@H](C=C(CO)C[C@]3(O)C(=O)C(C)=C[C@@H]23)[C@@H]2C(C)(C)[C@]12OC(C)=O [PMA, phorbol 12-myristate 12-acetate]
PBX0138A04 mRNA
  Ratio of Medians (Cy5/Cy3) Mean: 2.99 ± 1.32
  Ratio of Medians (Cy5/Cy3) Second Spot: 4.33
PBX0138C12 mRNA
  (CY3/CY5) by Landmarks (1.6): 3.59
  (CY3/CY5) by all Data Points (1.3): 5.74
  Normalization by Landmarks (1.6): 0.28
  Normalization by all Data Points (1.3): 0.17
  Ratio of Medians (Cy5/Cy3) First Spot: 0.14
  Ratio of Medians (Cy5/Cy3) Mean: 0.13 ± 0.01
  Ratio of Medians (Cy5/Cy3) Second Spot: 0.13
PBX0138D01 mRNA
  Normalized by Landmarks (1.59): 4.45
  Normalized by all Data Points (1.28): 3.58
  Ratio of Medians (Cy5/Cy3) First Spot: 3.50
  Ratio of Medians (Cy5/Cy3) Mean: 2.80 ± 0.70
  Ratio of Medians (Cy5/Cy3) Second Spot: 2.10
PBX0138E10 mRNA
  (CY3/CY5) by Landmarks (1.6): 2.68
  (CY3/CY5) by all Data Points (1.3): 4.29
  Normalization by Landmarks (1.6): 0.37
  Normalization by all Data Points (1.3): 0.23
  Ratio of Medians (Cy5/Cy3) First Spot: 0.15
  Ratio of Medians (Cy5/Cy3) Mean: 0.18 ± 0.03
  Ratio of Medians (Cy5/Cy3) Second Spot: 0.21
PBX0138G10 mRNA
  (CY3/CY5) by Landmarks (1.6): 3.35
  (CY3/CY5) by all Data Points (1.3): 5.36
  Normalization by Landmarks (1.6): 0.30
  Normalization by all Data Points (1.3): 0.19
  Ratio of Medians (Cy5/Cy3) First Spot: 0.10
  Ratio of Medians (Cy5/Cy3) Mean: 0.14 ± 0.04
  Ratio of Medians (Cy5/Cy3) Second Spot: 0.18
PBX0138G12 mRNA
  (CY3/CY5) by Landmarks (1.6): 2.56
  (CY3/CY5) by all Data Points (1.3): 4.09
  Normalization by Landmarks (1.6): 0.39
  Normalization by all Data Points (1.3): 0.24
  Ratio of Medians (Cy5/Cy3) First Spot: 0.17
  Ratio of Medians (Cy5/Cy3) Mean: 0.19 ± 0.02
  Ratio of Medians (Cy5/Cy3) Second Spot: 0.21
PBX0139A08 mRNA
  Normalized by Landmarks (1.59): 4.21
  Normalized by all Data Points (1.28): 3.39
  Ratio of Medians (Cy5/Cy3) First Spot: 2.00
  Ratio of Medians (Cy5/Cy3) Mean: 2.65 ± 0.65
  Ratio of Medians (Cy5/Cy3) Second Spot: 3.29
PBX0139B06 mRNA
  Normalized by Landmarks (1.59): 5.45
  Normalized by all Data Points (1.28): 4.39
  Ratio of Medians (Cy5/Cy3) First Spot: 4.00
  Ratio of Medians (Cy5/Cy3) Mean: 3.43 ± 0.57
  Ratio of Medians (Cy5/Cy3) Second Spot: 2.86
PBX0139D03 mRNA
  (CY3/CY5) by Landmarks (1.6): 3.15
  (CY3/CY5) by all Data Points (1.3): 5.04
  Normalization by Landmarks (1.6): 0.32
  Normalization by all Data Points (1.3): 0.20
  Ratio of Medians (Cy5/Cy3) First Spot: 0.04
  Ratio of Medians (Cy5/Cy3) Mean: 0.15 ± 0.11
  Ratio of Medians (Cy5/Cy3) Second Spot: 0.26
PBX0139F05 mRNA
  (CY3/CY5) by Landmarks (1.6): 3.52
  (CY3/CY5) by all Data Points (1.3): 5.64
  Normalization by Landmarks (1.6): 0.28
  Normalization by all Data Points (1.3): 0.18
  Ratio of Medians (Cy5/Cy3) First Spot: 0.15
  Ratio of Medians (Cy5/Cy3) Mean: 0.14 ± 0.02
  Ratio of Medians (Cy5/Cy3) Second Spot: 0.12
PBX0139F12 mRNA
  (CY3/CY5) by Landmarks (1.6): 2.63
  (CY3/CY5) by all Data Points (1.3): 4.21
  Normalization by Landmarks (1.6): 0.38
  Normalization by all Data Points (1.3): 0.24
  Ratio of Medians (Cy5/Cy3) First Spot: 0.20
  Ratio of Medians (Cy5/Cy3) Mean: 0.18 ± 0.02
  Ratio of Medians (Cy5/Cy3) Second Spot: 0.16
PBX0139H03 mRNA
  (CY3/CY5) by Landmarks (1.6): 2.11
  (CY3/CY5) by all Data Points (1.3): 3.38
  Normalization by Landmarks (1.6): 0.47
  Normalization by all Data Points (1.3): 0.30
  Ratio of Medians (Cy5/Cy3) First Spot: 0.26
  Ratio of Medians (Cy5/Cy3) Mean: 0.23 ± 0.03
  Ratio of Medians (Cy5/Cy3) Second Spot: 0.20
